Experimental data reported in patent publication US7935711B2, “HIV inhibiting 2-(4-cyanophenylamino) pyrimidine oxide derivatives” (priority 2005, dated 2011).

What was measured:
[1] = test system: wild type HIV-LAI strain (IIIB); assay: Antiviral spectrum, cellular assay, strain IIIB; assay type: cell-based; settings: Human immunodeficiency virus 1
Experimental: (§1) Because of the increasing emergence of drug resistant HIV strains, the present compounds were tested for their potency against clinically isolated HIV strains harboring several mutations. These mutations are associated with resistance to reverse transcriptase inhibitors and result in viruses that show various degrees of phenotypic cross-resistance to the currently commercially available drugs such as for instance AZT and delavirdine.
(§2) The antiviral activity of the compound of the present invention is evaluated in the presence of wild type HIV and HIV mutants bearing mutations at the reverse transcriptase gene. The activity of the compounds is evaluated using a cellular assay and the residual activity is expressed in pEC50 values. The columns IIIB and A-G in the table list the pEC50 values against various strains IIIB, A-G.
Strain IIIB is wild type HIV-LAI strain;

[2] = test system: HIV strain A, mutation Y181C in HIV reverse transcriptase; assay: Antiviral spectrum, cellular assay, strain A; assay type: cell-based; settings: Human immunodeficiency virus 1, read-out: pEC50 A (converted)
Experimental: as §1, §2
Strain A contains mutation Y181C in HIV reverse transcriptase, […]

[3] = test system: HIV strain B, mutation K103N in HIV reverse transcriptase; assay: Antiviral spectrum, cellular assay, strain B; assay type: cell-based; settings: Human immunodeficiency virus 1, read-out: pEC50 B (converted)
Experimental: as §1, §2
Strain B contains mutation K103N in HIV reverse transcriptase, […]

[4] = test system: HIV strain C, mutation L100I in HIV reverse transcriptase; assay: Antiviral spectrum, cellular assay, strain C; assay type: cell-based; settings: Human immunodeficiency virus 1, read-out: pEC50 C (converted)
Experimental: as §1, §2
Strain C contains mutation L100I in HIV reverse transcriptase, […]

[5] = test system: HIV strain D, mutation Y188L and S162K in HIV reverse transcriptase; assay: Antiviral spectrum, cellular assay, strain D; assay type: cell-based; settings: Human immunodeficiency virus 1, read-out: pEC50 D (converted)
Experimental: as §1, §2
Strain D contains mutation Y188L and S162K in HIV reverse transcriptase, […]

[6] = test system: HIV strain E, mutations L100I and K103N in HIV reverse transcriptase; assay: Antiviral spectrum, cellular assay, strain E; assay type: cell-based; settings: Human immunodeficiency virus 1, read-out: pEC50 E (converted)
Experimental: as §1, §2
Strain E contains mutations L100I and K103N in HIV reverse transcriptase, […]

[7] = test system: HIV strain F, mutations K101E and K103N in HIV reverse transcriptase; assay: Antiviral spectrum, cellular assay, strain F; assay type: cell-based; settings: Human immunodeficiency virus 1, read-out: pEC50 F (converted)
Experimental: as §1, §2
Strain F contains mutations K101E and K103N in HIV reverse transcriptase.

| Compound | EC50 [1] | EC50 [2] | EC50 [3] | EC50 [4] | EC50 [5] | EC50 [6] | EC50 [7] | melting point |
| --- | --- | --- | --- | --- | --- | --- | --- | --- |
| Cc1cc(C#N)cc(C)c1Oc1nc(Nc2ccc(C#N)cc2)[n+]([O-])c(N)c1Br [Compound 1] | 0.575 nM | 0.631 nM | 1.41 nM | 0.631 nM | 0.603 nM | 1.07 nM | 1.05 nM | 271 °C |
| Cc1cc(C#N)cc(C)c1Oc1nc(Nc2ccc(C#N)cc2)nc(N)c1Br [Compound A, 4-[[6-amino-5-bromo-2-[(4-cyanophenyl)amino]-4-pyrimidinyl]oxy]-3,5-dimethylbenzonitrile, reference compound] | 2.82 nM | 10 nM | 1.78 nM | 2.88 nM | 2.45 nM | 8.13 nM | 4.57 nM | – |
